pIC50: −log10 of the molar value. Activity calls are given as the source filed them. The calls are words filed in the database; no cut-off is given here.
Experiments:
RAW264.7 [1] = assay: Anti-inflammatory activity in LPS induced mouse RAW264.7 cells assessed as inhibition of IL-1beta mRNA expression incubated for 12 hrs followed by LPS stimulation and measured after 6 hrs by RT-PCR method; assay type: functional, cell-based
RAW264.7 [2] = assay: Cytotoxicity against mouse RAW264.7 cells at 50 uM by MTT assay relative to control; assay type: functional
RAW264.7 [3] = assay: Anti-inflammatory activity in LPS induced mouse RAW264.7 cells assessed as inhibition of IL-1beta mRNA expression at 10 uM incubated for 12 hrs followed by LPS stimulation and measured after 6 hrs by RT-PCR method; assay type: functional, cell-based; details: time 18.0 hrs
RAW264.7 [4] = assay: Anti-inflammatory activity in LPS induced mouse RAW264.7 cells assessed as inhibition of IL-6 mRNA expression at 10 uM incubated for 12 hrs followed by LPS stimulation and measured after 6 hrs by RT-PCR method; assay type: functional, cell-based; details: time 18.0 hrs
Mus musculus [5] = assay: Antiinflammatory activity in HFCFD-induced NASH C57BL/6JNifdc mouse model assessed as change inflammatory infiltration at 50 mg/kg, po administered once daily for 4 weeks by H and E staining based analysis; assay type: functional, organism-based
[6] = molecular target: T1, 5'-AMP-activated protein kinase (Mus musculus) (UniProt Q5EG47+Q8BRK8+Q6PAM0+O54950+Q91WG5+Q9R078+Q8BGM7); assay: Agonist activity at AMPK in mouse RAW264.7 cells assessed as stimulation of AMPK phosphorylation at upto 10 uM; assay type: cell-based; details: filed as agonist
[7] = molecular target: T1, 5'-AMP-activated protein kinase (Mus musculus); assay: Agonist activity at AMPK in mouse C2C12 cells assessed as stimulation of AMPK phosphorylation at upto 30 uM; assay type: cell-based; details: filed as agonist
[8] = molecular target: T1, 5'-AMP-activated protein kinase (Mus musculus); assay: Agonist activity at AMPK in mouse C2C12 cells assessed as increase in PGC-1alpha mRNA level; assay type: cell-based; details: filed as agonist, dose <= 30.0 µM
Mus musculus [9] = assay: Antiinflammatory activity in HFCFD-induced NASH C57BL/6JNifdc mouse model assessed as decrease in ALT serum level at 50 mg/kg, po administered once daily for 4 weeks by automated biochemical analyzer; assay type: functional, organism-based
Mus musculus [10] = assay: Antiinflammatory activity in HFCFD-induced NASH C57BL/6JNifdc mouse model assessed as decrease in AST serum level at 50 mg/kg, po administered once daily for 4 weeks by automated biochemical analyzer; assay type: functional, organism-based
Mus musculus [11] = assay: Antiinflammatory activity in HFCFD-induced NASH po dosed C57BL/6JNifdc mouse model assessed as downregulation of IL-1beta expression administered once daily for 4 weeks; assay type: functional, organism-based; details: dose 25-50 mg/kg
Mus musculus [12] = assay: Antiinflammatory activity in HFCFD-induced NASH po dosed C57BL/6JNifdc mouse model assessed as downregulation of IL-12beta expression administered once daily for 4 weeks; assay type: functional, organism-based; details: dose 25-50 mg/kg
Mus musculus [13] = assay: Antiinflammatory activity in HFCFD-induced NASH po dosed C57BL/6JNifdc mouse model assessed as downregulation of TNFalpha expression administered once daily for 4 weeks; assay type: functional, organism-based; details: dose 25-50 mg/kg
Mus musculus [14] = assay: Antiinflammatory activity in HFCFD-induced NASH po dosed C57BL/6JNifdc mouse model assessed as downregulation of CCL2 expression administered once daily for 4 weeks; assay type: functional, organism-based; details: dose 25-50 mg/kg
Mus musculus [15] = assay: Antiinflammatory activity in HFCFD-induced NASH po dosed C57BL/6JNifdc mouse model assessed as downregulation of CCL4 expression administered once daily for 4 weeks; assay type: functional, organism-based; details: dose 25-50 mg/kg
Mus musculus [16] = assay: Antiinflammatory activity in HFCFD-induced NASH po dosed C57BL/6JNifdc mouse model assessed as downregulation of CCL5 expression administered once daily for 4 weeks; assay type: functional, organism-based; details: dose 25-50 mg/kg
Mus musculus [17] = assay: Antiinflammatory activity in NASH C57BL/6JNifdc po dosed mouse model assessed as decrease in NF-kappaB p65 phosphorylation level administered once daily for 4 weeks by Western blot analysis; assay type: functional, organism-based; details: dose 25-50 mg/kg
RAW264.7 [18] = assay: Antiinflammatory activity in mouse RAW264.7 cells assessed as downregulation of NF-kappaB p65 phosphorylation level at upto 10 uM by Western blot analysis; assay type: functional, cell-based
Mus musculus [19] = assay: Anti-fibrosis effect in HFCFD-induced NASH C57BL/6JNifdc mouse model assessed as downregulation of alpha-SMA mRNA level at 25 to 50 mg/kg, po administered once daily for 4 weeks; assay type: functional, organism-based; details: dose 25-50 mg/kg
Mus musculus [20] = assay: Anti-fibrosis effect in HFCFD-induced NASH C57BL/6JNifdc mouse model assessed as downregulation of Col1a1 mRNA level at 25 to 50 mg/kg, po administered once daily for 4 weeks; assay type: functional, organism-based; details: dose 25-50 mg/kg
Mus musculus [21] = assay: Anti-fibrosis effect in HFCFD-induced NASH C57BL/6JNifdc mouse model assessed as downregulation of Col3a1 mRNA level at 25 to 50 mg/kg, po administered once daily for 4 weeks; assay type: functional, organism-based; details: dose 25-50 mg/kg
Mus musculus [22] = assay: Anti-fibrosis effect in HFCFD-induced NASH C57BL/6JNifdc mouse model assessed as decrease in collagen accumulation at 25 to 50 mg/kg, po administered once daily for 4 weeks by Sirius red staining based analysis; assay type: functional, organism-based; details: dose 25-50 mg/kg
Mus musculus [23] = assay: Reduction in hepatic steatosis in HFCFD-induced NASH C57BL/6JNifdc mouse model assessed as reduction in liver weight at 50 mg/kg, po administered once daily for 4 weeks; assay type: functional, organism-based
Mus musculus [24] = assay: Reduction in hepatic steatosis in HFCFD-induced NASH C57BL/6JNifdc mouse model assessed as reduction in liver/body weight ratio at 50 mg/kg, po administered once daily for 4 weeks; assay type: functional, organism-based
Mus musculus [25] = assay: Reduction in hepatic steatosis in HFCFD-induced NASH po dosed C57BL/6JNifdc mouse model assessed as decrease in hepatocellular vacuolization administered once daily for 4 weeks by H and E staining based analysis; assay type: functional, organism-based; details: dose 25-50 mg/kg
Mus musculus [26] = assay: Reduction in hepatic steatosis in HFCFD-induced NASH po dosed C57BL/6JNifdc mouse model assessed as decrease in lipid droplets administered once daily for 4 weeks by H and E staining based analysis; assay type: functional, organism-based; details: dose 25-50 mg/kg
Mus musculus [27] = assay: Reduction in hepatic steatosis in HFCFD-induced NASH C57BL/6JNifdc mouse model assessed as decrease in neutral fat at 25 to 50 mg/kg, po administered once daily for 4 weeks by Oil red-O staining based assay; assay type: functional, organism-based; details: dose 25-50 mg/kg
Mus musculus [28] = assay: Reduction in hepatic steatosis in HFCFD-induced NASH C57BL/6JNifdc mouse model assessed as decrease in fatty acids at 25 to 50 mg/kg, po administered once daily for 4 weeks by Oil red-O staining based assay; assay type: functional, organism-based; details: dose 25-50 mg/kg
Mus musculus [29] = assay: Reduction in hepatic steatosis in HFCFD-induced NASH C57BL/6JNifdc mouse model assessed as decrease in triglycerides at 25 to 50 mg/kg, po administered once daily for 4 weeks by Oil red-O staining based assay; assay type: functional, organism-based; details: dose 25-50 mg/kg

In the case of `COc1ccc(CN2CCC(NC(=O)C(C)(C)Oc3ccc(C(=O)c4ccc(Cl)cc4)cc3)CC2)cc1`, the pIC50 (RAW264.7 [1]) was 5.34 and the Activity (RAW264.7 [2]) was 4.08%.
With `Cc1ccc(C)c(OCCCC(C)(C)C(=O)NC2CCN(Cc3ccc(F)cc3)CC2)c1` the pIC50 (RAW264.7 [1]) was 5.34 and the Activity (RAW264.7 [2]) was 78.02%.
With `CC(C)(Oc1ccc(C(=O)c2ccc(Cl)cc2)cc1)C(=O)NC1CCN(Cc2ccc(OC(F)(F)F)cc2)CC1` the pIC50 (RAW264.7 [1]) was 5.01 and the Activity (RAW264.7 [2]) was 88.34%.
`Cc1ccc(CN2CCC(NC(=O)C(C)(C)Oc3ccc(C(=O)c4ccc(Cl)cc4)cc3)CC2)cc1` showed a pIC50 (RAW264.7 [1]) of 5.07 and an Activity (RAW264.7 [2]) of 4.64%.
For `O=C(COc1ccc(C(=O)c2ccccc2)cc1)NC1CCN(Cc2ccccc2)CC1`, the Activity (RAW264.7 [3]) was “Active”, the Activity (RAW264.7 [4]) was “Active” and the pIC50 (RAW264.7 [1]) was 4.82. The Activity (RAW264.7 [2]) was 96.32%.
`CC(C)(Oc1ccc(Cl)cc1)C(=O)NC1CCN(Cc2ccccc2)CC1` was tested, and the Activity (RAW264.7 [3]) was “inactive”.
In the case of `Cc1ccc(C)c(OCCCC(C)(C)C(=O)NC2CCN(Cc3ccccc3)CC2)c1`, the Activity (RAW264.7 [3]) was “Active”.
In the case of `CC(C)(Oc1ccc(C(=O)c2ccc(Cl)cc2)cc1)C(=O)NC1CCN(Cc2ccccc2)CC1`, the Activity (RAW264.7 [3]) was “Active”.
In the case of `Cc1ccc(C)c(OCCCC(C)(C)C(=O)NC2CCN(Cc3ccc(Cl)cc3)CC2)c1`, the pIC50 (RAW264.7 [1]) was 4.83 and the Activity (RAW264.7 [2]) was 68.99%.
Work on `Cc1ccc(CN2CCC(NC(=O)C(C)(C)CCCOc3cc(C)ccc3C)CC2)cc1` yielded a pIC50 (RAW264.7 [1]) of 5.18 and an Activity (RAW264.7 [2]) of 42.67%.
For `CC(C)(Oc1ccc(C(=O)c2ccc(Cl)cc2)cc1)C(=O)NC1CCN(Cc2ccc(C(F)(F)F)cc2)CC1`, the Activity (Mus musculus [5]) was “Active”, the pIC50 (RAW264.7 [1]) was 5.36 and the Activity (RAW264.7 [2]) was 98.46%. The Activity [6] was “Active”, the Activity [7] was “Active” and the Activity [8] was “Dose-Dependent Effect”. For the same compound, the Activity (Mus musculus [9]) was “Active”, the Activity (Mus musculus [10]) was “Active” and the Activity (Mus musculus [11]) was “Dose-Dependent Effect”. For the same compound, the Activity (Mus musculus [12]) was “Dose-Dependent Effect”, the Activity (Mus musculus [13]) was “Dose-Dependent Effect” and the Activity (Mus musculus [14]) was “Dose-Dependent Effect”. The Activity (Mus musculus [15]) was “Dose-Dependent Effect”, the Activity (Mus musculus [16]) was “Dose-Dependent Effect” and the Activity (Mus musculus [17]) was “Dose-Dependent Effect”. For the same compound, the Activity (RAW264.7 [18]) was “Active”, the Activity (Mus musculus [19]) was “Active” and the Activity (Mus musculus [20]) was “Active”. The Activity (Mus musculus [21]) was “Active”, the Activity (Mus musculus [22]) was “Active” and the Activity (Mus musculus [23]) was “Active”. The Activity (Mus musculus [24]) was “Active”, the Activity (Mus musculus [25]) was “Dose-Dependent Effect” and the Activity (Mus musculus [26]) was “Dose-Dependent Effect”. The Activity (Mus musculus [27]) was “Active”, the Activity (Mus musculus [28]) was “Active” and the Activity (Mus musculus [29]) was “Active”.
Compound `Cc1ccc(C)c(OCCCC(C)(C)C(=O)NC2CCN(Cc3ccc(C(F)(F)F)cc3)CC2)c1` has a pIC50 (RAW264.7 [1]) of 5.29 and an Activity (RAW264.7 [2]) of 93.12%.
`COc1ccc(CN2CCC(NC(=O)C(C)(C)CCCOc3cc(C)ccc3C)CC2)cc1` was tested, and the pIC50 (RAW264.7 [1]) was 5.38 and the Activity (RAW264.7 [2]) was 7.19%.
Compound `COc1ccc(CN2CCC(NC(=O)COc3ccc(C(=O)c4ccc(Cl)cc4)cc3)CC2)cc1` has a pIC50 (RAW264.7 [1]) of 4.99 and an Activity (RAW264.7 [2]) of 3.33%.

Reference: ChEMBL document CHEMBL5247580, “Discovery of novel AdipoRon analogues as potent anti-inflammatory agents against nonalcoholic steatohepatitis” (Eur J Med Chem, 2022)
